Earlier results as cited in patent US9970152B2, “Method for functionalizing a solid material surface with self assembling or self aggregating cyclodextrins and products thereof” (Aalborg Universitet, priority 2010, dated 2018).

Settings: in water

## OC[C@H]1O[C@@H]2O[C@H]3[C@H](O)[C@@H](O)[C@@H](O[C@H]4[C@H](O)[C@@H](O)[C@@H](O[C@H]5[C@H](O)[C@@H](O)[C@@H](O[C@H]6[C@H](O)[C@@H](O)[C@@H](O[C@H]7[C@H](O)[C@@H](O)[C@@H](O[C@H]1[C@H](O)[C@H]2O)O[C@@H]7CO)O[C@@H]6CO)O[C@@H]5CO)O[C@@H]4CO)O[C@@H]3CO [α CD]
  Solubility: 129.5 g/kg H2O
